Measured values as given in patent US7407645B2, “Bioconjugates of metal complexes of nitrogen-containing macrocyclic ligands” (Metaphore Pharmaceuticals, Inc., priority 1995, dated 2008).

Assay: Relaxivity R1 from proton relaxation times (T1), inversion-recovery, 20 MHz
Type: physicochemical
Design: unit not given here
Conditions: 100 mM Hepes buffer, pH=7.4, 40° C., slope of 1/T1 versus concentration
Method: Relaxivity measurements of the complex of Example 1 was determined.
Proton relaxation times (T1) of the sample in 100 mM Hepes buffer, pH=7.4, at 40° C. were determined from a monoexponential curve fit obtained from inversion-recovery pulse sequences (180°-τ-90°) with a Bruker PC 120/125/10 VTs NMR process analyzer. The spectrometer was calibrated for each sample to assure accurate duration of 90° and 180° radio frequency pulses and appropriate magnetic field strength to match the 20 MHz system operating frequency. The relaxivity (R1) was obtained from the slope of a plot of 1/T1 versus the concentration of paramagnetic compound.

In the case of “[Manganese (II) dichloro 2,3-(R,R)-Cyclohexano-6-(S)-{3-(lithocholylamino)-propyl}-1,4,7,10,13-penta-azacclopentadecane] [Example 1]”, the “relaxivity R1” value is reported as 6.09.
